In patent publication US20060276844A1, “Ingestible device for nitric oxide production in tissue” (priority 2005, published 2006):

Legend:
rat jejunum [1] = assay: NO-signal-enhanced drug permeation in rat jejunum in vitro, with NOS inhibitor L-NAME (FIGS. 2-3); type: in vitro ADME; settings: 1 mM L-NAME plus NO signal (5 mA, 1 ms, 18 Hz), rat jejunum segments
From the text: Reference is made to FIGS. 2 and 3, which are graphs showing in vitro experimental results measured in accordance with an embodiment of the present invention. These experiments assessed the effect of the application of an electrical signal configured to enhance NO-associated drug permeation, which is inhibited by non-specific NOS inhibitor NG-Nitro-L-Arginine methyl ester (L-NAME) in rat jejunum in vitro. The NO-releasing electrical signal (hereinbelow, the “NO signal”) was applied with the following parameters: an amplitude of 5 mA, a pulse width of 1 ms, and a frequency of 18 Hz. In the experiment shown in FIG. 2, 1 mg/ml octreotide was applied to 11 segments of rat jejunum. The NO signal alone was applied to six of the segments, 1 mM L-NAME alone was applied to two of the segments, and the NO signal and 1 mM L-NAME were applied to three of the segments. In the experiment shown in FIG. 3, 1 mg/ml leuprolide was applied to 14 segments of rat jejunum. The NO signal alone was applied to three of the segments, 1 mM L-NAME alone was applied to two of the segments, the NO signal and 1 mM L-NAME were applied to three of the segments, and no treatment was applied to the remaining six segments.

rat jejunum [2] = assay: Octreotide permeation in rat jejunum in vitro: electrical stimulation versus NO donor (FIG. 4); type: in vitro ADME
Description: FIG. 4 is a graph showing in vitro experimental results measured in accordance with an embodiment of the present invention. In this experiment, the permeation-enhancing effect of electrical stimulation in rat jejunum in vitro was compared with the effect of an NO donor, molsidomine (SIN-10) (exogenous nitric oxide). The NO signal alone was applied to six segments of rat jejunum, 1 mM SIN-10 alone was applied to four segments, the NO signal and 1 mM SIN-10 were applied to three segments, and no treatment was applied to six segments.

Structure (SMILES) | effect on NO-signal-enhanced drug permeation (octreotide) (rat jejunum [1]; FIG. 2, 1 mg/ml octreotide) | effect on NO-signal-enhanced drug permeation (leuprolide) (rat jejunum [1]; FIG. 3, 1 mg/ml leuprolide) | rate of octreotide transepithelial transport compared with electrically-induced absorption (rat jejunum [2]; 1 mM SIN-10 alone) | effect of combination with electrical stimulation on enhanced permeation of octreotide, versus electrical stimulation alone (rat jejunum [2]; NO signal plus 1 mM SIN-10)
COC(=O)[C@@H](N)CCCNC(=N)N[N+](=O)[O-] [L-NAME, NG-Nitro-L-Arginine methyl ester] | nearly prevented | nearly prevented |  | 
CCOC(=O)[N-]c1cn(N2CCOCC2)n[o+]1 [SIN-10, molsidomine] |  |  | similar | did not augment
